Reference: patent publication US12023317B2, “Composition for ameliorating psoriasis comprising cimicifugolide a as active ingredient” (KOREA INSTITUTE OF SCIENCE AND TECHNOLOGY, priority 2021, dated 2024)

Tested on: psoriasis
Assay: psoriasis-induced group: skin moisture, damaged area, skin morphology, inflammation
Format: in vivo
Settings: when cimicifugolide A is administered

CC(C)=CC1OC(=O)/C(=C\CO)C1O (stereo not shown) [cimicifugolide A, (Z)-4-Hydroxy-3-(2-hydroxyethylidene)-5-(2-methylprop-1-en-1-yl)dihydrofuran-2(3H)-one]
inflammation expression: inhibition
moisture content: increased
moisture loss: decreased
skin morphological changes: inhibition
